Source: patent US9801832B2, “Pharmaceutical composition having synergistic action of direct catalase inhibitors and modulators of no metabolism or of extracellular superoxide anion production which lead to catalase destruction” (Universitaetsklinikum Freiburg, priority 2012, dated 2017)

Key:
tumor cells = conditions: cited from earlier work
thrombocytes = conditions: cited from earlier work
[1] = system: MKN-45 gastric carcinoma cells; assay: Induction of apoptosis in MKN-45 gastric carcinoma cells (percentages of apoptotic cells); type: cell-based, human
Method: 12 500 MKN-45 cells in 100 μl (duplicate batches) were treated with the given concentrations of salicylic acid or remained free from salicylic acid. After 10 minutes the given concentrations of cyanidine were added.
12 500 MKN-45 cells in 100 μl (duplicate batches) were treated with 0.1 μg/ml salicylic acid or remained free from salicylic acid (control). […] After 6.5 hours the percentages of apoptotic cells were determined in duplicate batches.
12 500 MKN-45 cells in 100 μl (duplicate batches) either received no additive (control), 2 mM of the singlet oxygen scavenger histidine or 25 μM Caspase-8 inhibitor. […] After another 15 minutes cyanidine was added in the given concentrations. After 6.5 hours of incubation at 37° C. the percentages of apoptotic cells were determined.
12 500 MKN-45 cells in 100 μl (duplicate batches) either received no additive (control), 2 mM of the singlet oxygen scavenger histidine or 25 μM Caspase-8 inhibitor. […] After 6.5 hours incubation at 37° C. the percentage of apoptotic cells was determined. […]
12 500 MKN-45 cells in 100 μl medium were incubated with increasing concentrations of the given active ingredients, in the presence or absence of 0.1 μg/ml salicylic acid for 6 hours and then, the percentages of the apoptotic cells were determined (repeated determination).

Oc1ccc(C=Cc2cc(O)cc(O)c2)cc1 [resveratrol]
superoxide anion production (tumor cells): leads to a dramatic increase of the superoxide anion production
minor increase of the superoxide anion production (thrombocytes; 6.25 and 12.5 μg/ml): statistically insignificant
production of superoxide anions, hydrogen peroxide, and singlet oxygen (thrombocytes): leads to a reduction of the production of superoxide anions, hydrogen peroxide, and singlet oxygen
synergistic interaction with salicylic acid in the induction of apoptosis ([1]; 0.1 μg/ml salicylic acid, MKN-45, 6 hours (FIGS. 22-25)): synergistically reacts
induction of apoptosis ([1]; substance alone, 12 500 MKN-45 cells in 100 μl, 4-6.5 hours at 37° C.): still does not lead to a significant induction of apoptosis
